B1: TRAIL: TNF-Related Apoptosis Inducing Ligand, used as a positive control for apoptosis (protein, UniProt P50591 1-281, looked up)
Tumor necrosis factor ligand …: MAMMEVQGGPSLGQTCVLIVIFTVLLQSLCVAVTYVYFTNELKQMQDKYSKSGIACFLKEDDSYWDPNDEESMNSPCWQVKWQLRQLVRKMILRTSEETISTVQEKQQNISPLVRERGPQRVAAHITGTRGRSNTLSSPNSKNEKALGRKINSWESSRSGHSFLSNLHLRNGELVIHEKGFYYIYSQTYFRFQEEIKENTKNDKQMVQYIYKYTSYPDPILLMKSARNSCWSKDAEYGLYSIYQGGIFELKENDRIFVSVTNEHLIDMDHEASFFGAFLVG

Legend:
[1] = test system: HLE cells; test: Growth inhibition assay (MTT), HLE; type: cell-based, human; conditions: Homo sapiens
Protocol: The effect of IMSs (IBN-15, IBN-19, IBN-24, IBN-25 and IBN-32) on the proliferative properties of p53 mutant cell line HLE was examined. The cytotoxicity activity and proliferation inhibition of IMSs in tumor cells were measured by MTT. […] The control experiments with DMSO alone (0.05% v/v) had no effect on cell proliferation. […] (Table 4) Microscopic observation on the cell cultures visually confirmed the inhibition on cell proliferation by IMSs. (FIG. 35)

[2] = test system: HLE cells; test: Apoptosis assay (Annexin V-FITC/PI flow cytometry); type: cell-based, human; conditions: 72 h, IBN-15 60 μM, IBN-19 90 μM, IBN-24 90 μM, IBN-25 30 μM, IBN-32 20 μM, DMSO 0.045%
Protocol: FIG. 36. IMSs induce apoptosis in Hepatocarcinoma cells. A) Cells were treated with vehicle and IBN 15, IBN 19, IBM 24, IBN 25 and IBN 32 for 72 h, and apoptosis was quantified using Annexin V-FITC/PI staining followed by flow cytometric analysis. 10,000 cells were detected for every sample. Living cells are in the bottom left quadrants (FITC− and PI−), early apoptotic cells in the bottom right quadrants (FITC+ and PI−), and late apoptotic cells in the upper right quadrants (apoptotic FITC+ and PI+). B) The percentage of apoptotic cells with respect to different IMSs.
To determine apoptosis analysis, 4×10^5 cells were plated in 10 cm dish. […] The floating and trypsinized adherent cells were collected and the apoptosis was quantified using Annexin V-FITC reagent (BD Biosciences Pharmingen) and PI (Invitrogen) following the manufacturer's protocol. Briefly, the cells were washed twice with cold PBS and then resuspend cell in 100 μl of × binding buffer containing a 10 μl of Annexin V-FITC (BD-Pharminagen) and 2 μl of PI from the stock of 100 μg/ml. The cells were gently vortexed and incubated for 15 min at room temperature in the dark. Subsequently 400 μl of 1× binding buffer were added to each tube, and the samples were immediately analyzed by FACScan flow cytometer (Becton Dickinson). The fluorescent signals of the Annexin-V conjugate and PI were detected at channels of fluorescence intensity FL1 and FL2 (BD LSR II with software BD).
Cells undergoing apoptosis would stain positive for Annexin and negative for PI (quadrant 4, Q4). Cells which stained positive for both Annexin V-FITC and PI (Q2) are either at the end stage of apoptosis or undergoing necrosis, and those which stained negative for both Annexin V-FITC and PI (Q3) were alive or undergoing undetectable apoptosis. In contrast, cell debris stained only for PI (Q1).

[3] = test system: HLE cells; test: Cell cycle analysis (PI flow cytometry); type: cell-based, human; conditions: 72 h; for cells in the S phase: at respective IC-50, control 24%; for cells in the G2/M phase: at respective IC-50, control 30%; for cells in the G1 phase: at respective IC-50, control 50%
Protocol: FIG. 37. IMSs arrest Hepatocarcinoma cells. Cells were treated with vehicle and IBN 15, IBN 19, IBN 24, IBN 25 and IBN 32 for 72 h, and cell cycle distribution was assessed by flow cytometry. A) Example FACS profiles of propidium iodide-stained control cells, and cells treated with IMSs respectively. B) % of cells in cell cycle phase C) % of cells in subG0 population. Each value is the mean±S.D. of three determinations.
To perform cell cycle distribution analysis, 4×10^5 cells were plated in 10 cm dish. The cells (70% confluence) were serum-starved for 24 h to synchronize them in the G0 phase of the cell cycle. After 24 h incubation, the cells were replaced with fresh 10% DMEM medium and then treated 60 μM of IBN-15, 90 μM of IBN-19, 90 μM of IBN-24, 30 μM of […] and 20 μM of IBN-32) and 0.045% DMSO as control for 72 h. The floating and trypsinized adherent cells were collected and washed with PBS. The cell pellets were resuspended in 1 ml of PBS and fixed by the addition of 70% ice-cold ethanol and stored at −20° C. After incubation for 24 hr, the cells were re-pelleted by centrifugation, the cells were washed once with PBS and resuspended in 0.1 mL of PBS containing 100 μg/ml of RNase and then incubated at 37° C. for 15 min. Finally, the cells were stained with 0.5 ml of PI solution (100 μg/mL in PBS) for 30 min. Cell cycle distribution was detected by a BD FACS array flow cytometer (Becton Dickinson). Cells with sub-G0 DNA were classified as apoptotic cells.

[4] = test system: caspase 3, caspase 9 and PARP; test: Western blot of caspase-3, caspase-9 and PARP cleavage in HLE; type: cell-based, human; conditions: 72 h
Protocol: FIG. 38. IMSs, induce cleavage of caspase-3, caspase-9 and PARP. Western blot analysis for the effect of IBN 15, IBM 19, IBN 24, IBM 25, IBN 32 on the cleavage of caspase-3, Caspase-9 and PARP in HLE cells after 72 h exposure to indicated doses of IMSs.
The HLE cells were seeded at a density of 4×10^5 in 10 cm dish. After 24 h incubation, the cells were replaced with fresh 10% DMEM medium and then treated with 60 μM of IBN-15, 90 μM of IBN-19, 90 μM of IBN-24, 30 μM of IBN-25 and 20 μM of IBN 32 and 0.045% DMSO as control for 72 h. Whole cell lysates were prepared on day 3 with lysis buffer [125 mM Tris (pH 7.4), 2% Sodium dodecyl sulfate, 10% glycerol, 6M urea and a protease inhibitor cocktail (Sigma) and 0.02% Bromophenol blue]. The lysates were sonicated for 30 seconds and then heated for 5 mins at boiling temperature. The lysates were centrifuged at 13000 rpm for 10 mins and the protein concentration of each sample was estimated using the BCA protein assay. The lysates was then mixed with 5% 2-mercaptoethanol and stored at −80 C. For Western blotting, samples containing 50 μg of total cell lysate were loaded onto a SDS-PAGE and subjected to electrophoresis. Proteins were transferred to a nitrocellulose membrane and then blocked with 5% non-fat dry milk in Tris buffer saline containing 0.1% Tween 20 for 60 min at 37 C. The membranes were probed with a primary antibody overnight at 4 C in TEST containing 5% Bovine serum albumin. Then the membrane was incubated with horseradish peroxidase (HRP)-conjugated anti-rabbit or anti-mouse secondary antibodies (GE Health care, Chalfont St Giles, UK). Detection was performed with enhanced chemiluminescence (ECL) reagent (Amersham Arlington Heights, Ill.) according to the manufacturer's protocol. Rabbit polyclonal Phospho-p53 (Ser15, 20, 46, 392), anti-caspase-9, anti-caspase-3, anti-PARP antibodies were purchased from Cell Signaling Technology, Inc. (Beverly, Mass., USA). Antibodies against p53 and p21 were purchased from Santa Cruz Biotechnology (Santa Cruz, Calif., USA).

[5] = test system: p53 signaling pathway-associated gene expression in HLE cells; test: Real-time PCR array of p53 signaling pathway-associated genes; type: cell-based, human; conditions: 48 h
Protocol: FIG. 42. Real-Time PCR array analysis of p53 signaling pathway-associated gene expression. (A) Anti-apoptotic genes. (B) Growth inhibition gene SESN2. (C) Cell cycle check point genes. (D) Cell proliferation genes. (E) DNA repair gene ATM. The relative level of gene expression was normalized with housekeeping gene GAPDH. Values are expressed as mean±standard deviation.
Cells were seeded at a density of 4×10^5 cells per dish in 10 cm dishes. Next day, the cells were exposed to 90 uM of IBN-19, 90 uM of IBN-24, 40 uM of IBN-25 and 0.045% of DMSO (Dimethyl Sulphoxide) as the control. After 48 hrs, total RNAs were extracted from the cells using Nucleospin RNA II kit as per the manufacturer's istructions. RNA quality and yield were evaluated after spectrophotometer measurements.
The human apoptosis PCR array (RT^2 Profiler) was used to analyze mRNA levels of 84 key genes involved in apoptosis, in a 96-well format, according to the manufacturer's instructions (Super Array Bioscience). First-strand cDNA was synthesized with 1 μg of RNA by using a PCR array first strand-synthesis kit (C-03; Super array Bioscience). This kit uses reverse transcriptase (Power Script; Super array Bioscience) and a combination of random primers and oligo dT primers. The total volume of the reaction was 20 μL diluted to 100 μL. PCR reactions were performed using real-time PCR (79s00HT 96-well block with RT^2 Real-Time SYBR Green PCR master mix PA-012; Applied Biosystems Instruments 7500). The total volume of the PCR reaction was 25 μl. An equivalent of […] of RNA was applied to the PCR reaction. The thermocycler parameters were 95° C. for 10 minutes, followed by 40 cycles of 95° C. for 15 seconds and 60° C. for 1 minute. Relative changes in gene expression were calculated using the ΔΔCt (cycle threshold) method. An average of the number of cycles of the five housekeeping genes, GAPDH, Actin-β, β2m, Hprt1, and Rpl13d, was used to normalize the expression between samples. The expression data are presented as fold regulation. GAPDH gene expression levels were utilized as an internal control to normalize the data. Reported fold changes in expression are the ratios of treatment over control values.
To obtain more information on how the IMSs influence other gene expression in the HLE cells, 84 genes related to p53 signal transduction were profiled by using the RT^2 Profiler array (Super Array Bioscience) (FIG. 42A, B, C, D, E). The array includes keys genes relevant to p53, apoptosis, cell cycle, cell growth, proliferation, differentiation, and DNA repair.

[6] = test system: MKN 28; test: Growth inhibition assay (MTT), MKN 28; type: cell-based, human; conditions: MKN 28, 72 h
Protocol: (§3) The percentage of growth inhibition was determined by using a MTT assay to measure viable cells. For the MTT assay, 1×10^3 cells per well were cultured in 96-well plates and treated with 0 to 100 μM of various types of IMSs for 72 h. After incubation for specified times at 37° C. in a humidified incubator, culture medium replaced with 10 μL of MTT reagent (5 mg/mL) contains 100 μL medium was added to each well and further incubated for 4 h. The reaction was stopped by adding 100 μL of DMSO. Absorbance was measured at 570 nm on a micro plate reader (SpectroMax 190, Molecular Devices). Data were presented from three separate experiments, and the percentage of IMSs induced cell growth inhibition was determined where DMSO-treated cells (control) were taken as 100%.
(§4) First, the cytotoxic effect of these drugs on these cells was investigated using the MTT assay. Cells were seeded into 96 well plates and treated with increasing concentrations of these synthetic organic molecules for 72 h, and then the cytotoxic effect was measured.

[7] = test system: MDAMB231; test: Growth inhibition assay (MTT), MDAMB231; type: cell-based, human; conditions: MDAMB231, 72 h
Protocol: as §3, §4

[8] = test system: MCF-10A; test: Growth inhibition assay (MTT), MCF-10A; conditions: 72 h
Protocol: as §3, §4

[9] = test system: HLE cells; test: Annexin V staining and flow cytometry, HLE; type: cell-based, human; conditions: 24 hr, TRAIL 100 ng/ml
Protocol: (§1) FIG. 22. […] HLE or HepG2 cells were incubated with DBZIM of various concentrations for 6 hr, and assayed for caspase 3/7 activity and LDH releasing (expressed as % toxicity). DBZIM induced apoptosis as characterized by annexin V staining using flow cytometer in HLE (E) and HepG2 (F). Scatter plot and histogram gave the representative information on the cell population distribution while bar graphs quantified the percentage of apoptotic cells from the histogram. HLE and HepG2 cells were treated by DBZIM of various concentrations for 24 hr before harvesting for annexin V staining and flow cytometric analysis.
(§2) HLE and HepG2 cells were treated with various concentrations of DBZIM or TRAIL (100 ng/ml) for 24 hr, harvested and labeled with Annexin V-FITC (BioVision, CA, USA). The labeled cells were analysed by flow cytometry FACSCalibur ([…], NJ, USA) and CellQuest software. Cells showing green staining in the plasma membrane were considered as apoptotic cells.

[10] = test system: HepG2 cells; test: Annexin V staining and flow cytometry, HepG2; type: cell-based, human; conditions: HepG2, 24 hr; TRAIL 100 ng/ml
Protocol: as §1, §2

Molecule | IC50 ([1]; 72 h) | IC50 ([1]; 120 h) | cell apoptosis (Q2) [2] | cells in the S phase [3] | cells in the G2/M phase [3] | cells in the G1 phase [3] | also measured
[Br-].c1ccc(CCn2cc[n+](CCc3ccccc3)c2)cc1 [IBN-32, 1,3-di(2-phenylethyl)-imidazolium bromide] | 20 µM | 20 µM | 18% | 14.6% | 18.9% | 32.3% | 
Cc1n(Cc2ccccc2)cc[n+]1Cc1ccccc1C(F)(F)F.[Cl-] [IBN-25, 1-benzyl-3-(2-trifluoromethylbenzyl)-2-methylimidazolium chloride] | 30 µM | 35 µM |  | 14.3% | 19.4% | 34.5% | activation and cleavage of caspase 3, caspase 9 and PARP [4]: induced significant activation and cleavage; anti-apoptotic gene BCl-2 expression [5]: significantly down regulated; cell proliferation genes (Mcl1, Egr1, Foxo3, Jun, Mdm4, Nf1, Prm1D, Sesn1, E2f11, Prkca, Brca1) [5]: significantly down regulated; increase of ATM gene expression vs control ([5]; IBN-19 90 uM, IBN-24 90 uM, IBN-25 40 uM): 9 folds
[Br-].c1ccc(Cn2c[n+](Cc3ccccc3)cc2-c2ccccc2)cc1 [IBN-15, 1,3-Dibenzyl-5-phenylimidazolium bromide] | 60 µM | 20 µM | 33% | 19.7% | 21% | 42% | 
Cc1n(Cc2ccccc2)cc[n+]1Cc1ccccc1.[Br-] [compound C, 1,3,-Dibenzyl-2-methylimidazolium bromide] |  |  |  |  |  |  | IC50 [6]: 35 µM; IC50 [7]: 35 µM; IC50 in normal breast epithelial cells [8]: no IC50
B1 |  |  |  |  |  |  | apoptosis (annexin V staining) [9]: not in HLE cells; apoptosis (annexin V staining) [10]: only induced apoptosis in HepG2

Reference: patent publication US9072729B2, “Method for treating fibrosis and cancer with imidazolium and imidazolinium compounds” (Agency for Science, Technology and Research, priority 2008, dated 2015)
